Measurements: patent US20240101531A1, “PYRIDINAMINE DERIVATIVES AND THEIR USE AS POTASSIUM CHANNEL MODULATORS” (Xenon Pharmaceuticals Inc., priority 2022, published 2024)
Structures can show the parent of a compound that is named as a salt.

target: human KV7.2/KV7.3 (Homo sapiens (Human), UniProt O43525+O43526); assay: Potassium flux assay (IPG-2 AM dye); assay type: cell-based; conditions: TREX HEK 293 or HEK 293 cells expressing human KV7.2/KV7.3; arithmetic mean values
Outline: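 HEK 293 or TREX HEK 293 cells stably expressing human KV7.2/KV7.3 (tetracycline-induced where needed), loaded with IPG-2 AM, then compound for 20 min at room temperature. Flux triggered by K challenge buffer (10 mM KCl, pH 7.4), read at 530/558 nm; EC50 from 16-point 2-fold series from 30 μM, normalised to DMSO and reference modulator.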

Row | EC50 | Structure (SMILES)
1 | 1000 to 10000 nM | CCn1ccc(COc2ccc3c(Nc4ccc(Cl)nc4)nccc3c2)n1 [Example 188, N-(6-chloropyridin-3-yl)-6-((1-ethyl-1H-pyrazol-3-yl)methoxy)isoquinolin-1-amine formate]
2 | < 1000 nM | Cc1ccc(Nc2nccc3cc(OCc4c[nH]nc4C)ccc23)cn1 [Example 427, 6-((3-methyl-1H-pyrazol-4-yl)methoxy)-N-(6-methylpyridin-3-yl)isoquinolin-1-amine formate]
3 | 10000 to 30000 nM | Cc1ncc(Nc2nccc3c(F)c(OCC4CC4)ccc23)cn1 [Example 233, 6-(cyclopropylmethoxy)-5-fluoro-N-(2-methylpyrimidin-5-yl)isoquinolin-1-amine]
4 | 1000 to 10000 nM | COc1ncc(COc2ccc3c(Nc4ccc(Cl)nc4)nccc3c2)cn1 [Example 186, N-(6-chloropyridin-3-yl)-6-((2-methoxypyrimidin-5-yl)methoxy)isoquinolin-1-amine]
5 | < 1000 nM | Clc1ncc(Nc2nccc3cc(OC[C@@H]4COCCO4)ccc23)cn1 [Example 383, (S)-6-((1,4-dioxan-2-yl)methoxy)-N-(2-chloropyrimidin-5-yl)isoquinolin-1-amine]
6 | < 1000 nM | Clc1ccc(Nc2nccc3cc(OCC4COCCO4)ccc23)cn1 (centres unmarked) [Example 154, 6-((1,4-dioxan-2-yl)methoxy)-N-(6-chloropyridin-3-yl)isoquinolin-1-amine]
7 | < 1000 nM | N#CC1(COc2ccc3c(Nc4ccc(Cl)nc4)nccc3c2)CCOC1 (stereo in doubt) [Example 126, (S)-3-(((1-((6-chloropyridin-3-yl)amino)isoquinolin-6-yl)oxy)methyl)tetrahydrofuran-3-carbonitrile]
8 | < 1000 nM | NC(=O)C1(COc2ccc3c(Nc4cnc(Cl)nc4)nccc3c2)CC1 [Example 361, 1-(((1-((2-chloropyrimidin-5-yl)amino)isoquinolin-6-yl)oxy)methyl)cyclopropane-1-carboxamide]
9 | < 1000 nM | FC(F)C1(COc2ccc3c(Nc4ccc(Cl)nc4)nccc3c2)COC1 [Example 327, N-(6-chloropyridin-3-yl)-6-((3-(difluoromethyl)oxetan-3-yl)methoxy)isoquinolin-1-amine]
10 | 1000 to 10000 nM | CS(=O)(=O)C1(COc2ccc3c(Nc4ccc(Cl)nc4)nccc3c2)CC1 [Example 286, N-(6-chloropyridin-3-yl)-6-((1-(methylsulfonyl)cyclopropyl)methoxy)isoquinolin-1-amine]
11 | 1000 to 10000 nM | COC(=O)C1COCCN1CCOc1ccc2c(Nc3ccc(Cl)nc3)nccc2c1 (centres unmarked) [Example 320, methyl 4-(2-((1-((6-chloropyridin-3-yl)amino)isoquinolin-6-yl)oxy)ethyl)morpholine-3-carboxylate]
12 | 10000 to 30000 nM | CCc1ncc(Nc2nccc3cc(OCC4(F)CC4)ccc23)cn1 [Example 44, N-(2-ethylpyrimidin-5-yl)-6-((1-fluorocyclopropyl)methoxy)isoquinolin-1-amine]
13 | 1000 to 10000 nM | CS(=O)(CC1CC1)=Nc1ccc2c(Nc3ccc(Cl)nc3)nccc2c1 (centres unmarked) [Example 269, ((1-((6-chloropyridin-3-yl)amino)isoquinolin-6-yl)imino)(cyclopropylmethyl)(methyl)-λ^6-sulfanone]
14 | < 1000 nM | Cn1cc(COc2ccc3c(Nc4ccc(Cl)nc4)nccc3c2)cn1 [Example 196, N-(6-chloropyridin-3-yl)-6-((1-methyl-1H-pyrazol-4-yl)methoxy)isoquinolin-1-amine]
15 | 10000 to 30000 nM | COC(=O)c1ccc2c(Nc3ccc(Cl)nc3)nccc2c1 [Example 10, methyl 1-((6-chloropyridin-3-yl)amino)isoquinoline-6-carboxylate]
16 | ≥ 30000 nM | Clc1ccc(Nc2nccc3cc(OCCN4CC5(COC5)C4)ccc23)cn1 [Example 73, 6-(2-(2-oxa-6-azaspiro[3.3]heptan-6-yl)ethoxy)-N-(6-chloropyridin-3-yl)isoquinolin-1-amine]
17 | 1000 to 10000 nM | Clc1ccc(Nc2nccc3cc(OCc4cnn(C5CC5)c4)ccc23)cn1 [Example 289, N-(6-chloropyridin-3-yl)-6-((1-cyclopropyl-1H-pyrazol-4-yl)methoxy)isoquinolin-1-amine]
18 | 1000 to 10000 nM | COc1ccc2c(Nc3ccc(Cl)nc3)nccc2c1 [Example 19, N-(6-chloropyridin-3-yl)-6-methoxyisoquinolin-1-amine formate]
19 | < 1000 nM | N#CCn1cc(COc2ccc3c(Nc4ccc(Cl)nc4)nccc3c2)cn1 [Example 400, 2-(4-(((1-((6-chloropyridin-3-yl)amino)isoquinolin-6-yl)oxy)methyl)-1H-pyrazol-1-yl)acetonitrile]
20 | 1000 to 10000 nM | F[C@H]1C[C@H]1COc1ccc2c(Nc3ccc(Cl)nc3)nccc2c1 [Example 414, N-(6-chloropyridin-3-yl)-6-(((1S,2S)-2-fluorocyclopropyl)methoxy)isoquinolin-1-amine]
21 | 1000 to 10000 nM | CC(=O)N1CCC[C@H](Oc2ccc3c(Nc4ccc(Cl)nc4)nccc3c2)C1 [Example 122, (S)-1-(3-((1-((6-chloropyridin-3-yl)amino)isoquinolin-6-yl)oxy)piperidin-1-yl)ethan-1-one]

Row | EC50 | Structure (SMILES)
22 | 1000 to 10000 nM | Clc1ccc(Nc2nccc3cc(OC[C@@H]4CCN(Cc5ccccc5)C4)ccc23)cn1 [Example 283, (R)-6-((1-benzylpyrrolidin-3-yl)methoxy)-N-(6-chloropyridin-3-yl)isoquinolin-1-amine]
23 | 1000 to 10000 nM | C[C@@H]1COCCN1CCOc1ccc2c(Nc3ccc(Cl)nc3)nccc2c1 [Example 322, (R)-N-(6-chloropyridin-3-yl)-6-(2-(3-methylmorpholino)ethoxy)isoquinolin-1-amine]
24 | 1000 to 10000 nM | Clc1ccc(Nc2nccc3cc(Oc4ccccc4)ccc23)cn1 [Example 8, N-(6-chloropyridin-3-yl)-6-phenoxyisoquinolin-1-amine]
25 | 1000 to 10000 nM | Clc1ccc(Nc2nccc3cc(OCCc4ncccn4)ccc23)cn1 [Example 387, N-(6-chloropyridin-3-yl)-6-(2-(pyrimidin-2-yl)ethoxy)isoquinolin-1-amine]
26 | 1000 to 10000 nM | Cn1cc(CNc2ccc3c(Nc4ccc(Cl)nc4)nccc3c2)cn1 [Example 244, N′-(6-chloropyridin-3-yl)-N^6-((1-methyl-1H-pyrazol-4-yl)methyl)isoquinoline-1,6-diamine]
27 | 1000 to 10000 nM | O[C@@H]1COC[C@@H]1Oc1ccc2c(Nc3ccc(Cl)nc3)nccc2c1 (racemic) [Example 79, rac-(3R,4S)-4-((1-((6-chloropyridin-3-yl)amino)isoquinolin-6-yl)oxy)tetrahydrofuran-3-ol]
28 | 1000 to 10000 nM | OC(COc1ccc2c(Nc3ccc(Cl)nc3)nccc2c1)C(F)(F)F (centres unmarked) [Example 240, 3-((1-((6-chloropyridin-3-yl)amino)isoquinolin-6-yl)oxy)-1,1,1-trifluoropropan-2-ol]
29 | 1000 to 10000 nM | Cc1cnc(Nc2ccc(Cl)nc2)c2[nH]ccc12 [Example 35, N-(6-chloropyridin-3-yl)-4-methyl-1H-pyrrolo[2,3-c]pyridin-7-amine]
30 | < 1000 nM | Cc1ncc(Nc2nccc3cc(OCC4(C#N)CC(F)(F)C4)ccc23)cn1 [Example 235, 3,3-difluoro-1-(((1-((2-methylpyrimidin-5-yl)amino)isoquinolin-6-yl)oxy)methyl)cyclobutane-1-carbonitrile formate]
31 | 1000 to 10000 nM | N=[S@]1(=O)CCC[C@@H](COc2ccc3c(Nc4cnc(Cl)nc4)nccc3c2)C1 (relative stereo) [Example 366, cis-3-(((1-((2-chloropyrimidin-5-yl)amino)isoquinolin-6-yl)oxy)methyl)-1-iminohexahydro-1λ^6-thiopyran 1-oxide]
32 | < 1000 nM | CS(=O)(=Nc1ccc2c(Nc3ccc(Cl)nc3)nccc2c1)C1CC1 (stereo in doubt) [Example 274, (S)-((1-((6-chloropyridin-3-yl)amino)isoquinolin-6-yl)imino)(cyclopropyl)(methyl)-λ^6-sulfanone]
33 | 1000 to 10000 nM | Cc1ccc2c(Nc3ccc(Cl)nc3)nccc2c1 [Example 20, N-(6-chloropyridin-3-yl)-6-methylisoquinolin-1-amine formate]
34 | < 1000 nM | Clc1ccc(Nc2nccc3cc(OCC4CC5(CCO5)C4)ccc23)cn1 (centres unmarked) [Example 114, 6-((1-oxaspiro[3.3]heptan-6-yl)methoxy)-N-(6-chloropyridin-3-yl)isoquinolin-1-amine]
35 | 1000 to 10000 nM | Clc1ccc(Nc2nccc3cc(O[C@@H]4CCCN(Cc5ccccc5)C4)ccc23)cn1 [Example 108, (R)-6-((1-benzylpiperidin-3-yl)oxy)-N-(6-chloropyridin-3-yl)isoquinolin-1-amine]
36 | 1000 to 10000 nM | CC(C)Oc1ccc2c(Nc3ccc(Cl)nc3)nccc2c1 [Example 1, N-(6-chloropyridin-3-yl)-6-isopropoxyisoquinolin-1-amine]
37 | < 1000 nM | N#CC1(COc2ccc3c(Nc4ccc(Cl)nc4)nccc3c2)COC1 [Example 85, 3-(((1-((6-chloropyridin-3-yl)amino)isoquinolin-6-yl)oxy)methyl)oxetane-3-carbonitrile]
38 | 1000 to 10000 nM | CC(Oc1ccc2c(Nc3ccc(Cl)nc3)nccc2c1)c1cn[nH]c1 (centres unmarked) [Example 335, 6-(1-(1H-pyrazol-4-yl)ethoxy)-N-(6-chloropyridin-3-yl)isoquinolin-1-amine]
39 | < 1000 nM | C[C@@](O)(COc1ccc2c(Nc3ccc(Cl)nc3)nccc2c1)C(F)(F)F [Example 224, (R)-3-((1-((6-chloropyridin-3-yl)amino)isoquinolin-6-yl)oxy)-1,1,1-trifluoro-2-methylpropan-2-ol]
40 | 1000 to 10000 nM | FC(F)(F)CNc1cnc(Nc2ccc(Cl)nc2)c2[nH]ccc12 [Example 402, NF-(6-chloropyridin-3-yl)-N^4-(2,2,2-trifluoroethyl)-1H-pyrrolo[2,3-c]pyridine-4,7-diamine]
41 | < 1000 nM | O[C@H]1CC[C@@H](Oc2ccc3c(Nc4ccc(Cl)nc4)nccc3c2)C1 (racemic) [Example 102, rac-(1S,3R)-3-((1-((6-chloropyridin-3-yl)amino)isoquinolin-6-yl)oxy)cyclopentan-1-ol]
